This passage reports AC50 and EC50 results from patent US20240316038A1, “APOL1 INHIBITORS AND METHODS OF USE” (Maze Therapeutics, Inc., priority 2021, published 2024).

Assay [1] deals with T1, APOL1 G2 (Homo sapiens, UniProt O14791, DEL388-389).
T1 construct: expressed in transfected cells; host or cells: HEK293 T-REx clonal lines: HEK T-REx/GCaMP6f/APOL1 G2 K6.3 in A1, HEK293/T-REx APOL1 G2/clone #2 in A2
T1 sequence (O14791 with tags, fused parts or gaps DEL388-389): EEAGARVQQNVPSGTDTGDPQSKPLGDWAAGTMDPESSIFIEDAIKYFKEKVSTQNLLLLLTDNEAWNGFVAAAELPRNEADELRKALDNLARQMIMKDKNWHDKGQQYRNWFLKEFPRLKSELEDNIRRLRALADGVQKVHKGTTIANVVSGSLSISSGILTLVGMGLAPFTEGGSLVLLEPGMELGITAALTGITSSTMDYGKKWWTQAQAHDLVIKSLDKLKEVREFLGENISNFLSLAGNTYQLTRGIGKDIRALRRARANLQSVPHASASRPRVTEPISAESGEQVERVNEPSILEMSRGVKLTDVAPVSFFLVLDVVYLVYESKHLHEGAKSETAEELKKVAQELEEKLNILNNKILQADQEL
Kind of assay: APOL1 calcium transport inhibition assay (GCaMP6f calcium influx, FLIPR) in HEK T-REx/GCaMP6f/APOL1 G2 K6.3 cells. Type of assay: cell-based. The note with it: inhibition of APOL1-mediated calcium influx; geometric mean of at least 2 assay runs, † = single assay run (technical duplicate). The gist of the method: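 HEK293 cells stably expressing GCaMP6f, APOL1 G2 induced 6 h with doxycycline (20 ng/mL added), then washed into Ca2+-free Tyrode's buffer pH 7.4. Compounds (8-point dose response) preincubated 10 min at room temperature, then Ca2+ injected to 5 mM final and influx read on FLIPR. AC50 reported as geometric mean of runs.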

Assay [2] has as its target T1, APOL1 G2. The assay can be described thus: Rescue of HEK293 cell death caused by overexpression of APOL1 (CellTiter-Glo luminescence), HEK293/T-REx APOL1 G2/clone #2. It is filed as cell-based. The note with it: reversal of cell death caused by overexpression of APOL1; geometric mean of at least 2 assay runs, † = single assay run (technical duplicate). The gist of the method: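 Rescue EC50s come from four-parameter logistic fits, geometric mean of at least 2 runs on separate days, each in duplicate. Readout: CellTiter-Glo luminescence after 17 h at 37 °C of 5,000 HEK293/T-REx APOL1 G2 clone #2 cells/well, with 6 ng/mL doxycycline to induce APOL1 and 3-fold serial compound dilutions in 0.5% DMSO.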
(In general: Cellular ATP, detected with luciferase, serves as a proxy for viable cell number.)

SMILES strings stand for the structures. Some results are limits rather than exact numbers.

With `CN(c1ccc(OC[C@@H](O)CNCCc2cccc(Cl)c2)cc1)S(C)(=O)=O` [Compound 86, (S)-N-(4-(3-((3-chlorophenethyl)a-mino)-2-hydroxypropoxy)phe-nyl)-N-methylmethanesulfon-amide], the AC50 on APOL1 G2 [1] worked out at 557 nM. The EC50 on APOL1 G2 [2] was above 4110 nM.
Consider `CN(c1ccc(OC[C@H](O)CNCCc2cccc(Cl)c2)cc1)S(C)(=O)=O` [Compound 87, (R)-N-(4-(3-((3-chlorophenethyl)a-mino)-2-hydroxypropoxy)phe-nyl)-N-methylmethanesulfon-amide], for which, on APOL1 G2 [1], the AC50 amounted to 352 nM. Also, the EC50 at APOL1 G2 [2] amounted to 1850 nM.
The matching figures for `CN(c1ccc(OC[C@@H](O)CNCCc2cc(Cl)ccc2Cl)cc1)S(C)(=O)=O` [Compound 90, (S)-N-(4-(3-((2,5-dichlorophenethyl)amino)-2-hydroxypropoxy)phe-nyl)-N-methylmethanesulfon-amide]: 515 nM and 1460 nM.
The matching figures for `CN(c1ccc(OC[C@@H](O)CNCCc2cc(Cl)cc(Cl)c2)cc1)S(C)(=O)=O` [Compound 91, (S)-N-(4-(3-((3,5-dichlorophenethyl)amino)-2-hydroxypropoxy)phe-nyl)-N-methylmethanesulfon-amide]: 472 nM and 1040 nM.
The matching figures for `CN(c1ccc(OC[C@H](O)CNC2(Cc3cccc(Cl)c3)CCOC2)cc1)S(C)(=O)=O` (stereo partly drawn) [Compound 92, N-(4-((2R)-3-((3-(3-chlorobenzyl)tetra-hydrofuran-3-yl)amino)-2-hydroxypropoxy)phe-nyl)-N-methylmethanesulfon-amide]: 682 nM and above 9790 nM.
In the case of `CS(=O)(=O)c1ccc(OC[C@@H](O)CNCCc2cccc(Cl)c2)cc1` [Compound 93, (S)-1-((3-chlorophenethyl)a-mino)-3-(4-(methylsulfonyl)phe-noxy)propan-2-ol], the concentration at half-maximal activity (AC50) at APOL1 G2 [1] is 6540 nM. Moreover, the 50% effective concentration (EC50) at APOL1 G2 [2] is above 30000 nM.
For `CS(=O)(=O)c1ccc(OC[C@H](O)CNCCc2cccc(Cl)c2)cc1` [Compound 94, (R)-1-((3-chlorophenethyl)a-mino)-3-(4-(methylsulfonyl)phe-noxy)propan-2-ol] the same measures were 1620 nM and 8370 nM.
The matching figures for `CC(C)(Cc1cccc(Cl)c1)NC[C@@H](O)COc1ccc(S(C)(=O)=O)cc1` [Compound 97, (R)-1-((1-(3-chlorophenyl)-2-methylpropan-2-yl)amino)-3-(4-(methylsulfonyl)phe-noxy)propan-2-ol]: 314 nM and 460 nM.
The matching figures for `COc1ccccc1CCNC[C@H](O)COc1ccc(N(C)S(C)(=O)=O)cc1` [Compound 98, (S)-N-(4-(2-hydroxy-3-((2-methoxyphenethyl)amino)propoxy)phe-nyl)-N-methylmethanesulfon-amide]: 3920 nM and above 20000 nM.
Consider `CN(c1ccc(OC[C@@H](O)CNCCc2cccc(C#N)c2)cc1)S(C)(=O)=O` [Compound 99, (S)-N-(4-(3-((3-cyanophenethyl)a-mino)-2-hydroxypropoxy)phe-nyl)-N-methylmethanesulfon-amide], for which the concentration at half-maximal activity (AC50) at APOL1 G2 [1] was found to be 4140 nM. Also, the 50% effective concentration (EC50) at APOL1 G2 [2] was above 30000 nM.
With `CCc1ccccc1CCNC[C@H](O)COc1ccc(N(C)S(C)(=O)=O)cc1` [Compound 100, (S)-N-(4-(3-((2-ethylphenethyl)ami-no)-2-hydroxypropoxy)phe-nyl)-N-methylmethanesulfon-amide], the concentration at half-maximal activity (AC50) at APOL1 G2 [1] was 1260 nM. Also, at APOL1 G2 [2], the concentration giving a half-maximal response (EC50) was determined as 2730 nM.
In the case of `CN(c1ccc(OC[C@@H](O)CNCCc2ccccc2OC(F)F)cc1)S(C)(=O)=O` [Compound 101, (S)-N-(4-(3-((2-(difluoromethoxy)phenethyl)amino)-2-hydroxypropoxy)phe-nyl)-N-methylmethanesulfon-amide], at APOL1 G2 [1], the half-maximal activity concentration (AC50) turned out to be 1300 nM. For the same compound, the EC50 at APOL1 G2 [2] amounted to 10100 nM.
The matching figures for `CS(=O)(=O)c1ccc(OC[C@H](O)CNC(Cc2cccc(Cl)c2)C2CC2)cc1` (stereo partly drawn) [Compound 102, (2R)-1-((2-(3-chlorophenyl)-1-cyclopropylethyl)a-mino)-3-(4-(methylsulfonyl)phe-noxy)propan-2-ol]: 2190 nM and above 21800 nM.
For `CN(c1ccc(NCC(O)CNCCc2cccc(Cl)c2)cc1)S(C)(=O)=O` (stereo not drawn) [Compound 105, N-(4-((3-((3-chlorophenethyl)a-mino)-2-hydroxypropyl)ami-no)phenyl)-N-methylmethanesulfon-amide] the same measures were 946 nM and above 12400 nM.
The matching figures for `C[C@@H]1CN(CCc2cccc(Cl)c2)C[C@H]1COc1ccc(S(=O)(=O)CCS(C)(=O)=O)cc1` [Compound 107, (3S,4S)-1-[2-(3-chlorophenyl)ethy 1]-3-{[4-(2-methanesulfonyl-ethanesulfonyl)phenoxy]methyl}-4-methyl-pyrrolidine]: 91.9 nM and 80.9 nM.
On to `C[C@@H]1CN(CCc2cc(Cl)cc(C#N)c2)C[C@H]1COc1ccc(S(=O)(=O)CCS(C)(=O)=O)cc1` [Compound 108, 3-chloro-5-{2-[(3S,4S)-3-{[4-(2-methanesulfonyl-ethanesulfonyl)phenoxy]methyl}-4-methyl-pyrrolidin-1-yl]ethyl}benzonitrile], for which the concentration at half-maximal activity (AC50) on APOL1 G2 [1] turned out to be 144 nM. Moreover, the EC50 at APOL1 G2 [2] came out at 50.4 nM.
For `C[C@@H]1CN(CC(O)c2cc(Cl)cc(C#N)c2)C[C@H]1COc1ccc(S(C)(=O)=O)cc1` (stereo partly drawn) [Compound 120] the same measures were 461 nM and 195 nM.
As for `C[C@@H]1CN(CC(O)c2cccc(Cl)c2)C[C@H]1COc1ccc(S(C)(=O)=O)cc1` (stereo partly drawn) [Compound 123, 1-(3-chlorophenyl)-2-((3S,4S)-3-methyl-4-((4-(methylsulfonyl)phenoxy)methyl)pyrrolidin-1-yl)ethan-1-ol], the concentration at half-maximal activity (AC50) at APOL1 G2 [1] was determined as 376 nM. The EC50 at APOL1 G2 [2] is 300 nM.
For `C[C@@H]1CN(CC(O)c2cccc(C#N)c2)C[C@H]1COc1ccc(S(C)(=O)=O)cc1` (stereo partly drawn) [Compound 126] the same measures were 704 nM and 560 nM.
For `C[C@@H]1CN(CC(O)c2cc(C#N)cc(C#N)c2)C[C@H]1COc1ccc(S(C)(=O)=O)cc1` (stereo partly drawn) [Compound 129, 5-{1-hydroxy-2-[(3S,4S)-3-[(4-methanesulfonylphenoxy)methyl]-4-methylpyrrolidin-1-yl]ethyl}benzene-1,3-dicarbonitrile] the same measures were 1040 nM and 723 nM.
For the compound `C[C@@H]1C[C@H](COc2ccc(S(C)(=O)=O)cc2)CN1CCc1cc(C#N)cc(C#N)c1` [Compound 132], the AC50 at APOL1 G2 [1] was 510 nM. On APOL1 G2 [2], the EC50 is 43.7 nM.
As for `C[C@@H]1CN(CCc2cccc(Cl)c2)C[C@H]1COc1ccc(S(C)(=O)=O)cc1` [Compound 133, (35,4S)-1-[2-(3-chlorophenyl)ethyl]-3-[(4-methanesulfonylphenoxy)methyl]-4-methylpyrrolidine], the AC50 at APOL1 G2 [1] is 38.3 nM. Further, the EC50 at APOL1 G2 [2] was found to be 135 nM.
For `C[C@H]1CC[C@H](COc2ccc(S(C)(=O)=O)cc2)CN1CCc1cccc(Cl)c1` [Compound 134, (25,5S)-1-[2-(3-chlorophenyl)ethyl]-5-[(4-methanesulfonylphenoxy)methyl]-2-methylpiperidine] the same measures were 277 nM and 908 nM.
For `Cc1c(C#N)cc(Cl)cc1CCN1C[C@@H](COc2ccc(S(C)(=O)=O)cc2)C[C@H]1C` [Compound 141, 5-chloro-3-{2-[(2R,4S)-4-[(4-methanesulfon-ylphenoxy)meth-yl]-2-methyl-pyrrolidin-1-yl]-ethyl}-2-methyl-benzonitrile] the same measures were 737 nM and 78.9 nM.
For `Cc1c(C#N)cc(Cl)cc1CCN1C[C@@H](COc2ccc(S(C)(=O)=O)cc2)[C@H](C)C1` [Compound 144, 5-chloro-3-{2-[(3S,4S)-3-[(4-methanesulfon-ylphenoxy)meth-yl]-4-methyl-pyrrolidin-1-yl]-ethyl}-2-methyl-benzonitrile] the same measures were 423 nM and 256 nM.
Regarding `C[C@@H]1CN(CCc2cc(C#N)cc(C#N)c2)C[C@H]1COc1ccc(S(C)(=O)=O)cc1` [Compound 145, 5-{2-[(3S,4S)-3-[(4-methane-sulfonylphen-oxy)methyl]-4-methylpyrroli-din-1-yl]ethyl}-benzene-1,3-dicarbonitrile], at APOL1 G2 [1], the AC50 was found to be 356 nM. Moreover, the 50% effective concentration (EC50) on APOL1 G2 [2] came to 243 nM.
On to `CC(CN1C[C@@H](COc2ccc(S(C)(=O)=O)cc2)[C@H](C)C1)c1cc(Cl)cc(C#N)c1` (stereo partly drawn) [Compound 146, 3-chloro-5-[1-[(3S,4S)-3-[(4-methanesulfon-ylphenoxy)meth-yl]-4-methyl-pyrrolidin-1-yl]-propan-2-yl]-benzonitrile], for which the AC50 on APOL1 G2 [1] was 937 nM. At APOL1 G2 [2], the concentration for a half-maximal effect (EC50) came out at 273 nM.

By AC50 is commonly meant the concentration at which the activity in the assay is half-maximal. For orientation: EC50 means the concentration at which the effect is half-maximal.
